Source: PubChem BioAssay AID248 (DTP/NCI, 2004)
Several values for one entry are separate records, joined by “and”; a condition that tells them apart may be missing. Equal values may be shown once. Inconclusive results and toxic doses are left out. Rule as the data show it: active = T/C of 150% or more; inactive = T/C below 125%.

System: L1210 leukemia ip in BDF1 mice, survival T/C
Test: NCI In Vivo Anticancer Drug Screen. Data for tumor model L1210 Leukemia (intraperitoneal) in B6D2F1 (BDF1) mice
Conditions: endpoint: mean survival time, higher = longer survival
In short: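 Tumor was transplanted into mice, which were then dosed with test compound or vehicle alone. Survival was recorded for each group, and the treated figure was expressed relative to the control figure.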

[1] = dose: 100.0 mg/kg/injection, schedule: Q01DX009 (ip), vehicle: saline with Tween-80
[2] = dose: 200.0 mg/kg/injection, schedule: Q01DX009 (ip), vehicle: saline with Tween-80
[3] = dose: 50.0 mg/kg/injection, schedule: Q01DX009 (ip), vehicle: saline with Tween-80
[4] = dose: 100.0 mg/kg/injection, schedule: Q01DX001 (ip), vehicle: saline
[5] = dose: 200.0 mg/kg/injection, schedule: Q01DX001 (ip), vehicle: saline
[6] = dose: 100.0 mg/kg/injection, schedule: Q01DX009 (ip), vehicle: Klucel (hydroxypropylcellulose) (HPC)
[7] = dose: 12.5 mg/kg/injection, schedule: Q04DX003 (ip), vehicle: Klucel (hydroxypropylcellulose) (HPC)
[8] = dose: 25.0 mg/kg/injection, schedule: Q04DX003 (ip), vehicle: Klucel (hydroxypropylcellulose) (HPC)
[9] = dose: 50.0 mg/kg/injection, schedule: Q04DX003 (ip), vehicle: Klucel (hydroxypropylcellulose) (HPC)
[10] = dose: 75.0 mg/kg/injection, schedule: Q01DX001 (ip), vehicle: other
[11] = dose: 25.0 mg/kg/injection, schedule: Q04DX003 (ip), vehicle: saline
[12] = dose: 50.0 mg/kg/injection, schedule: Q04DX003 (ip), vehicle: saline
[13] = dose: 100.0 mg/kg/injection, schedule: Q01DX009 (ip), vehicle: saline
[14] = dose: 100.0 mg/kg/injection, schedule: Q04DX003 (ip), vehicle: saline
[15] = dose: 400.0 mg/kg/injection, schedule: Q01DX001 (ip), vehicle: saline
[16] = dose: 25.0 mg/kg/injection, schedule: Q01DX009 (ip), vehicle: saline with Tween-80
[17] = dose: 12.5 mg/kg/injection, schedule: Q04DX003 (ip), vehicle: saline
[18] = dose: 100.0 mg/kg/injection, schedule: Q04DX002 (ip), vehicle: Klucel (hydroxypropylcellulose) (HPC)

Measured: T/C

CCCCCCN(CCCCCC)CP(=S)(CN(CCCCCC)CCCCCC)CN(CCCCCC)CCCCCC
inactive: dose: 100.0 mg/kg/injection, schedule: Q01DX001 (ip), vehicle: saline with Tween-80 99 % of control | dose: 200.0 mg/kg/injection, schedule: Q01DX001 (ip), vehicle: saline with Tween-80 104 % of control

CS(=O)(=O)CCC(NC(=O)NCCCl)C(=O)O (centres undefined)
inactive: dose: 100.0 mg/kg/injection, schedule: Q01DX001 (ip), vehicle: Klucel (hydroxypropylcellulose) (HPC) 104 % of control | dose: 200.0 mg/kg/injection, schedule: Q01DX001 (ip), vehicle: Klucel (hydroxypropylcellulose) (HPC) 96 % of control | dose: 400.0 mg/kg/injection, schedule: Q01DX001 (ip), vehicle: Klucel (hydroxypropylcellulose) (HPC) 100 % of control

CCOC(=O)CN=NNc1[nH]ncc1C(N)=O
inactive: dose: 100.0 mg/kg/injection, schedule: Q01DX001 (ip), vehicle: other 102 % of control | [1] 115 % of control | dose: 100.0 mg/kg/injection, schedule: Q04DX003 (ip), vehicle: other 101 % of control | dose: 200.0 mg/kg/injection, schedule: Q01DX001 (ip), vehicle: other 104 % of control | [2] 115 % of control | dose: 200.0 mg/kg/injection, schedule: Q04DX003 (ip), vehicle: other 113 % of control | dose: 400.0 mg/kg/injection, schedule: Q01DX001 (ip), vehicle: other 105 % of control | dose: 400.0 mg/kg/injection, schedule: Q01DX009 (ip), vehicle: saline with Tween-80 116 % of control | dose: 400.0 mg/kg/injection, schedule: Q04DX003 (ip), vehicle: other 104 % of control

CC12COC(=O)CC1CCC1C2CCC2(C)C1CCC2(C)O (centres undefined)
inactive: [3] 96 % of control | [4] 93 % of control | [1] 91 % of control | [5] 90 % of control | [2] 101 % of control

COC(=O)c1cc(=O)[nH]n1C
inactive: [6] 104 % of control | dose: 200.0 mg/kg/injection, schedule: Q01DX009 (ip), vehicle: Klucel (hydroxypropylcellulose) (HPC) 104 % of control | dose: 400.0 mg/kg/injection, schedule: Q01DX009 (ip), vehicle: Klucel (hydroxypropylcellulose) (HPC) 101 % of control

CCN(CC)CCCC(C)Nc1ncnc(N)c1N (centres undefined)
inactive: [7] 93 % of control | [8] 91 % of control | [9] 102 % of control

OC(CNc1ccnc2cc(Cl)ccc12)CNC1CCCCC1 (centres undefined)
inactive: [10] 97 % of control

NC(=O)C(c1ccccc1)N1CCCC1 (centres undefined)
inactive: dose: 25.0 mg/kg/injection, schedule: Q01DX009 (ip), vehicle: saline 91 % of control | [11] 98 % of control | dose: 50.0 mg/kg/injection, schedule: Q01DX009 (ip), vehicle: saline 94 % of control | [12] 97 % of control | [13] 91 % of control | [14] 95 % of control

COC(=O)C(OC(C)=O)C1OC(n2cnc3c(=S)nc[nH]c32)C(OC(C)=O)C1OC(C)=O (centres undefined)
inactive: [4] 96 % of control | [5] 102 % of control | [15] 97 % of control

O=C(Oc1ccccc1)C1OC1c1ccccc1 (centres undefined)
inactive: dose: 100.0 mg/kg/injection, schedule: Q04DX003 (ip), vehicle: alcohol 103 % of control | dose: 200.0 mg/kg/injection, schedule: Q04DX003 (ip), vehicle: alcohol 98 % of control | dose: 400.0 mg/kg/injection, schedule: Q04DX003 (ip), vehicle: alcohol 105 % of control

COc1c(Cl)cc([N+](=O)[O-])c(OC)c1[N+](=O)[O-]
inactive: dose: 50.0 mg/kg/injection, schedule: Q01DX009 (ip), vehicle: acetone 90 % of control | [12] 98 % of control | dose: 100.0 mg/kg/injection, schedule: Q01DX001 (ip), vehicle: acetone 94 % of control | dose: 100.0 mg/kg/injection, schedule: Q01DX009 (ip), vehicle: acetone 90 % of control | [14] 93 % of control | dose: 200.0 mg/kg/injection, schedule: Q01DX001 (ip), vehicle: acetone 98 % of control

CN(C)C1C2C(CS2(=O)=O)C1(C)C (centres undefined)
inactive: dose: 75.0 mg/kg/injection, schedule: Q01DX001 (ip), vehicle: carboxymethylcellulose (CMC) 100 % of control | dose: 150.0 mg/kg/injection, schedule: Q01DX001 (ip), vehicle: carboxymethylcellulose (CMC) 100 % of control

CCN(CC)CCOC(=O)C(S)(c1ccccc1)C1CCCCC1 (centres undefined)
inactive: [10] 90 % of control | dose: 150.0 mg/kg/injection, schedule: Q01DX001 (ip), vehicle: other 87 % of control

CCCC/C=C/CO
inactive: [16] 97 % of control | [3] 97 % of control and 100 % of control | [2] 97 % of control and 100 % of control

Cn1cnc([N+](=O)[O-])c1/N=C/c1ccccc1
inactive: dose: 50.0 mg/kg/injection, schedule: Q01DX005 (ip), vehicle: saline 98 % of control | dose: 100.0 mg/kg/injection, schedule: Q01DX005 (ip), vehicle: saline 100 % of control | dose: 200.0 mg/kg/injection, schedule: Q01DX005 (ip), vehicle: saline 104 % of control

CN(C)P(Cl)(Cc1ccccc1)(c1ccccc1)c1ccccc1
inactive: dose: 3.12 mg/kg/injection, schedule: Q01DX009 (ip), vehicle: saline 106 % of control | dose: 6.25 mg/kg/injection, schedule: Q01DX009 (ip), vehicle: saline 105 % of control | [17] 106 % of control

Cc1ccc(N2CCN(CCCN3CCN(c4ccccc4Cl)CC3)CC2)cc1
inactive: dose: 6.25 mg/kg/injection, schedule: Q01DX009 (ip), vehicle: saline with Tween-80 99 % of control | dose: 12.5 mg/kg/injection, schedule: Q01DX009 (ip), vehicle: saline with Tween-80 89 % of control | [17] 92 % of control | [16] 94 % of control | [11] 90 % of control

CCc1oc(=O)c2ccccc2c1-c1ccccc1
inactive: [3] 93 % of control | [1] 90 % of control | [2] 93 % of control

CCOC(=O)c1ccccc1NC(=O)c1ccccc1
inactive: [18] 100 % of control | dose: 200.0 mg/kg/injection, schedule: Q04DX002 (ip), vehicle: Klucel (hydroxypropylcellulose) (HPC) 103 % of control | dose: 400.0 mg/kg/injection, schedule: Q04DX002 (ip), vehicle: Klucel (hydroxypropylcellulose) (HPC) 103 % of control

c1ccc2c(c1)C1c3ccccc3C2C2COCC12 (centres undefined)
inactive: dose: 50.0 mg/kg/injection, schedule: Q01DX009 (ip), vehicle: Klucel (hydroxypropylcellulose) (HPC) 113 % of control | [6] 108 % of control | dose: 100.0 mg/kg/injection, schedule: Q04DX003 (ip), vehicle: Klucel (hydroxypropylcellulose) (HPC) 98 % of control | dose: 200.0 mg/kg/injection, schedule: Q04DX003 (ip), vehicle: Klucel (hydroxypropylcellulose) (HPC) 100 % of control

COc1ccc(C(=O)CBr)c(OC)c1C
inactive: dose: 12.5 mg/kg/injection, schedule: Q01DX009 (ip), vehicle: Klucel (hydroxypropylcellulose) (HPC) 94 % of control | [7] 100 % of control | dose: 25.0 mg/kg/injection, schedule: Q01DX009 (ip), vehicle: Klucel (hydroxypropylcellulose) (HPC) 91 % of control | [8] 105 % of control | [9] 96 % of control

NCCCN1CCN(CCCN)CC1
inactive: [4] 98 % of control | [13] 94 % of control and 103 % of control | [14] 97 % of control | [5] 90 % of control | dose: 200.0 mg/kg/injection, schedule: Q01DX009 (ip), vehicle: saline 94 % of control and 97 % of control | dose: 200.0 mg/kg/injection, schedule: Q04DX003 (ip), vehicle: saline 96 % of control | [15] 95 % of control | dose: 400.0 mg/kg/injection, schedule: Q01DX009 (ip), vehicle: saline 100 % of control and 88 % of control | dose: 400.0 mg/kg/injection, schedule: Q04DX003 (ip), vehicle: saline 92 % of control

COc1ccc(O)c2c(C(=O)c3ccccc3)c[nH]c12
inactive: dose: 25.0 mg/kg/injection, schedule: Q04DX002 (ip), vehicle: Klucel (hydroxypropylcellulose) (HPC) 87 % of control | dose: 50.0 mg/kg/injection, schedule: Q04DX002 (ip), vehicle: Klucel (hydroxypropylcellulose) (HPC) 95 % of control | [18] 95 % of control
